Results: patent US20250381157A1, “ANTIMICROBIAL COMPOUNDS” (priority 2022, published 2025)
Several values for one entry are separate records, joined by “and”; a condition that tells them apart may be missing. Equal values may be shown once. Read-outs that look alike come from different tables or passages of the source.

Experiments:
[1] = system: Caco-2 cells; assay: Caco-2 cell study (permeability, efflux); type: in vitro ADME
Text: Caco-2 cells are used as a model of the intestinal epithelial barrier.

[2] = system: Enterotoxigenic Escherichia coli (ETEC) (ATCC ® 35401 ™, H10407); type: in vivo, mouse; details: for Body weights (Final Day) (Mean ± SD) / Log10 CFU/g [Mean ± SD] Blood / Log10 CFU/g [Mean ± SD] Kidneys / Log10 CFU/g [Mean ± SD] Liver / Log10 CFU/g [Mean ± SD] Spleen / Kidney -Raw data on Vancomycin (32 μg/ml) plates / Liver-Raw data on Vancomycin (32 μg/ml) plates / Spleen -Raw data on Vancomycin (32 μg/ml) plates / Blood -Raw data on Vancomycin (32 μg/ml) plates - on day 7 PI: PO, twice daily(q12h), 9 days; for effect on bacterial translocation: presence of cyclophosphamide, FIG. 4; for Clinical observation (Mean Score) Hunched Posture / Clinical observation (Mean Score) Lethergy / Clinical observation (Mean Score) Rough coat / Clinical observation (Mean Score) hyperpnea: 0=absent 1=present; for Kidney -Raw data on Vancomycin (32 μg/ml) plates / Liver-Raw data on Vancomycin (32 μg/ml) plates / Spleen -Raw data on Vancomycin (32 μg/ml) plates / Blood -Raw data on Vancomycin (32 μg/ml) plates - on day 7 PI: individual animals
Procedure: FIG. 3: Schematic protocol for neutropenia mouse model
A schematic of the experimental model is depicted in FIG. 3.
That experiment was performed in the presence of cyclophosphamide, which is known to cause febrile neutropenia due to translocation of bacteria to vital organs.

[3] = molecular target: T1, recombinant human HDAC3 (Homo sapiens, UniProt O15379); assay: HDAC3 in-vitro enzymatic assay; type: biochemical
T1 construct: purchased BPS 50003
Procedure: (§1) All of the compounds were dissolved in DMSO. A series of dilutions of the compounds were prepared with 10% DMSO in HDAC assay buffer and 5 μl of the dilution was added to a 50 μl reaction so that the final concentration of DMSO was 1% in all of reactions. The compounds were pre-incubated in duplicate at RT for 30 minutes in a mixture containing HDAC assay buffer, 5 μg BSA, HDAC enzyme and a test compound. After 30 minutes, the enzymatic reactions were initiated by the addition of HDAC substrate to a final concentration of 20 μM or 2 μM. The enzymatic reaction proceeded for 30 minutes at 37° C. After enzymatic reactions, 50 μl of 2×HDAC Developer was added to each well for the HDAC enzymes and the plate was incubated at room temperature for an additional 15 minutes. Fluorescence intensity was measured at an excitation of 360 nm and an emission of 460 nm using a Tecan Infinite M1000 microplate reader.
(§2) HDAC activity assays were performed in duplicates at each concentration. The fluorescent intensity data were analyzed using the computer software, Graphpad Prism. […] The percent activity in the presence of each compound was calculated according to the following equation: % activity=(F−Fb)/(Ft−Fb), where F=the fluorescent intensity in the presence of the compound. […] The IC50 value was determined by the concentration causing a half-maximal percent activity.

[4] = molecular target: T2, recombinant human HDAC9 (Homo sapiens, UniProt Q9UKV0); assay: HDAC9 in-vitro enzymatic assay; type: biochemical
T2 construct: purchased BPS 50009
Procedure: as §1, §2

[5] = Day (0), 5 mg/kg PO q12h 9 days
[6] = Day (0), 50 mg/kg PO q12h 9 days
[7] = Day (1), 5 mg/kg PO q12h 9 days
[8] = Day (1), 50 mg/kg PO q12h 9 days
[9] = Day (2), 5 mg/kg PO q12h 9 days
[10] = Day (2), 50 mg/kg PO q12h 9 days
[11] = Day (3), 5 mg/kg PO q12h 9 days
[12] = Day (3), 50 mg/kg PO q12h 9 days
[13] = Day (4), 5 mg/kg PO q12h 9 days
[14] = Day (4), 50 mg/kg PO q12h 9 days
[15] = Day (5), 5 mg/kg PO q12h 9 days
[16] = Day (5), 50 mg/kg PO q12h 9 days
[17] = Day (6), 5 mg/kg PO q12h 9 days
[18] = Day (6), 50 mg/kg PO q12h 9 days
[19] = Day (7), 5 mg/kg PO q12h 9 days
[20] = Day (7), 50 mg/kg PO q12h 9 days
[21] = Day (−1), 5 mg/kg PO q12h 9 days
[22] = Day (−1), 50 mg/kg PO q12h 9 days
[23] = Day (−2), 5 mg/kg PO q12h 9 days
[24] = Day (−2), 50 mg/kg PO q12h 9 days

T2 sequence (Q9UKV0 whole entry): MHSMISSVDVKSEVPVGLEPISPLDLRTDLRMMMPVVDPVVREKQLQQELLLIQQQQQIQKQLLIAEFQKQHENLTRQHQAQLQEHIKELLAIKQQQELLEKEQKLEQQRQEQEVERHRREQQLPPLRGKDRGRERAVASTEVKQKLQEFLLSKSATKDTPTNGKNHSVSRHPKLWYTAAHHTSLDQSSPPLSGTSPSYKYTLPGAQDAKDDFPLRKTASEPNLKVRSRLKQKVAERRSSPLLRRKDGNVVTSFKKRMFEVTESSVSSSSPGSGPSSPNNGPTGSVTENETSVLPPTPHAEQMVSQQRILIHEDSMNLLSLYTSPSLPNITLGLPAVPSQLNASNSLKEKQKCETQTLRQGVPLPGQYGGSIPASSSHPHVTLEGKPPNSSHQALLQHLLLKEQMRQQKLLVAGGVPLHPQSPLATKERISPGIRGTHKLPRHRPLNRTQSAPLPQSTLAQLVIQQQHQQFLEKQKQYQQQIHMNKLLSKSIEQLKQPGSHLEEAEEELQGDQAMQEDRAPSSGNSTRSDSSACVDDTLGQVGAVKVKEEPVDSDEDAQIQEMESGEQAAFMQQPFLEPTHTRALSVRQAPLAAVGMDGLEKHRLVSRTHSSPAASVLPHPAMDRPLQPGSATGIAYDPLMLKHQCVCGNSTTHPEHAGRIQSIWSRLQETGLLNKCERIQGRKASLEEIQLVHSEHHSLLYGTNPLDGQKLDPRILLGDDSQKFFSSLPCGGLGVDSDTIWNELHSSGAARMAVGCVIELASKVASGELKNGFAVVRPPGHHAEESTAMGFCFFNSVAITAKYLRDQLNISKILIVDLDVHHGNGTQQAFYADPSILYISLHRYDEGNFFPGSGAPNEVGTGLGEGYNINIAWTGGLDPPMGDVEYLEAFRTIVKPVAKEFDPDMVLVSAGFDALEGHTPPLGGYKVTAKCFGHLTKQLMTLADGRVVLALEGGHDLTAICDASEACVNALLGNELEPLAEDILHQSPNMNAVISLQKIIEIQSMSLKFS
T1 sequence (O15379 whole entry): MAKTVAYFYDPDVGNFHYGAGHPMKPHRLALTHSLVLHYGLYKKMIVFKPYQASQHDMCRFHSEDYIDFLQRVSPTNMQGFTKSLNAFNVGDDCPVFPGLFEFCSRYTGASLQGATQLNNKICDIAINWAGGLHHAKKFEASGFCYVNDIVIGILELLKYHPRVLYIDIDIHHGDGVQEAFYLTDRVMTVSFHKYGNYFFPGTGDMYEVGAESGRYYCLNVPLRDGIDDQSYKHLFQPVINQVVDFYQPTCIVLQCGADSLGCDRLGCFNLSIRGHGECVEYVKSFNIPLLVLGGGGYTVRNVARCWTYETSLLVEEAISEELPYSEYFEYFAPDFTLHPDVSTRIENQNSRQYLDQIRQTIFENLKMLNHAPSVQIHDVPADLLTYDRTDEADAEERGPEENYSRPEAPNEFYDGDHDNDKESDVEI
T1 sequence (Q9Y618 395-489 partner limits assumed): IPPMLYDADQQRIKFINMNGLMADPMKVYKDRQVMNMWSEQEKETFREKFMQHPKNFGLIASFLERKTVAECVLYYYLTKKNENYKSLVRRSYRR

C#CCOCC(=O)Nc1ccc(C(=O)Nc2ccccc2N)cc1 [Compound 1, N-(2-aminophenyl)-4-{2-[(prop-2-yn-1-yl)oxy]acetamido}benzamide]
Caco-2 Permeability A-B dir. [1]: High | Caco-2 Permeability A-B dir. ([1]; listed as compound 1): high | Active efflux ([1]; Caco-2): No | Body weights (Final Day) (Mean ± SD) ([2]; 5 mg/kg): 25.2 ± 1.69 | Log10 CFU/g [Mean ± SD] Blood ([2]; 5 mg/kg): 1.9 ± 0 Log10 CFU/g | Log10 CFU/g [Mean ± SD] Kidneys ([2]; 5 mg/kg): 2.83 ± 0.29^ns Log10 CFU/g | Log10 CFU/g [Mean ± SD] Liver ([2]; 5 mg/kg): 2.58 ± 0.32 Log10 CFU/g | Log10 CFU/g [Mean ± SD] Spleen ([2]; 5 mg/kg): 3.05 ± 0.3^ns Log10 CFU/g | effect on bacterial translocation ([2]; 5 mg/kg): little to no effect | Body weights (Final Day) (Mean ± SD) ([2]; 50 mg/kg): 26.1 ± 1.20 | Log10 CFU/g [Mean ± SD] Blood ([2]; 50 mg/kg): BLOQ | Log10 CFU/g [Mean ± SD] Kidneys ([2]; 50 mg/kg): BLOQ | Log10 CFU/g [Mean ± SD] Liver ([2]; 50 mg/kg): BLOQ | Log10 CFU/g [Mean ± SD] Spleen ([2]; 50 mg/kg): BLOQ | effect on bacterial translocation ([2]; 50 mg/kg): inhibits it completely | Clinical observation (Mean Score) Hunched Posture [2, 5]: 0.0 | Clinical observation (Mean Score) Lethergy [2, 5]: 0.0 | Clinical observation (Mean Score) Rough coat [2, 5]: 0.0 | Clinical observation (Mean Score) hyperpnea [2, 5]: 0.0 | Clinical observation (Mean Score) Hunched Posture [2, 6]: 0.0 | Clinical observation (Mean Score) Lethergy [2, 6]: 0.0 | Clinical observation (Mean Score) Rough coat [2, 6]: 0.0 | Clinical observation (Mean Score) hyperpnea [2, 6]: 0.0 | Clinical observation (Mean Score) Hunched Posture [2, 7]: 0.0 | Clinical observation (Mean Score) Lethergy [2, 7]: 0.0 | Clinical observation (Mean Score) Rough coat [2, 7]: 0.0 | Clinical observation (Mean Score) hyperpnea [2, 7]: 0.0 | Clinical observation (Mean Score) Hunched Posture [2, 8]: 0.0 | Clinical observation (Mean Score) Lethergy [2, 8]: 0.0 | Clinical observation (Mean Score) Rough coat [2, 8]: 0.0 | Clinical observation (Mean Score) hyperpnea [2, 8]: 0.0 | Clinical observation (Mean Score) Hunched Posture [2, 9]: 0.0 | Clinical observation (Mean Score) Lethergy [2, 9]: 0.0 | Clinical observation (Mean Score) Rough coat [2, 9]: 0.0 | Clinical observation (Mean Score) hyperpnea [2, 9]: 0.0 | Clinical observation (Mean Score) Hunched Posture [2, 10]: 0.0 | Clinical observation (Mean Score) Lethergy [2, 10]: 0.0 | Clinical observation (Mean Score) Rough coat [2, 10]: 0.0 | Clinical observation (Mean Score) hyperpnea [2, 10]: 0.0 | Clinical observation (Mean Score) Hunched Posture [2, 11]: 0.0 | Clinical observation (Mean Score) Lethergy [2, 11]: 0.0 | Clinical observation (Mean Score) Rough coat [2, 11]: 0.0 | Clinical observation (Mean Score) hyperpnea [2, 11]: 0.0 | Clinical observation (Mean Score) Hunched Posture [2, 12]: 0.0 | Clinical observation (Mean Score) Lethergy [2, 12]: 0.0 | Clinical observation (Mean Score) Rough coat [2, 12]: 0.0 | Clinical observation (Mean Score) hyperpnea [2, 12]: 0.0 | Clinical observation (Mean Score) Hunched Posture [2, 13]: 0.0 | Clinical observation (Mean Score) Lethergy [2, 13]: 0.0 | Clinical observation (Mean Score) Rough coat [2, 13]: 0.0 | Clinical observation (Mean Score) hyperpnea [2, 13]: 0.0 | Clinical observation (Mean Score) Hunched Posture [2, 14]: 0.0 | Clinical observation (Mean Score) Lethergy [2, 14]: 0.0 | Clinical observation (Mean Score) Rough coat [2, 14]: 0.0 | Clinical observation (Mean Score) hyperpnea [2, 14]: 0.0 | Clinical observation (Mean Score) Hunched Posture [2, 15]: 0.0 | Clinical observation (Mean Score) Lethergy [2, 15]: 0.1 | Clinical observation (Mean Score) Rough coat [2, 15]: 0.5 | Clinical observation (Mean Score) hyperpnea [2, 15]: 0.0 | Clinical observation (Mean Score) Hunched Posture [2, 16]: 0.0 | Clinical observation (Mean Score) Lethergy [2, 16]: 0.0 | Clinical observation (Mean Score) Rough coat [2, 16]: 0.0 | Clinical observation (Mean Score) hyperpnea [2, 16]: 0.0 | Clinical observation (Mean Score) Hunched Posture [2, 17]: 0.0 | Clinical observation (Mean Score) Lethergy [2, 17]: 0.4 | Clinical observation (Mean Score) Rough coat [2, 17]: 0.7 | Clinical observation (Mean Score) hyperpnea [2, 17]: 0.0 | Clinical observation (Mean Score) Hunched Posture [2, 18]: 0.0 | Clinical observation (Mean Score) Lethergy [2, 18]: 0.0 | Clinical observation (Mean Score) Rough coat [2, 18]: 0.4 | Clinical observation (Mean Score) hyperpnea [2, 18]: 0.0 | Clinical observation (Mean Score) Hunched Posture [2, 19]: 0.0 | Clinical observation (Mean Score) Lethergy [2, 19]: 0.5 | Clinical observation (Mean Score) Rough coat [2, 19]: 1.0 | Clinical observation (Mean Score) hyperpnea [2, 19]: 0.0 | Clinical observation (Mean Score) Hunched Posture [2, 20]: 0.0 | Clinical observation (Mean Score) Lethergy [2, 20]: 0.0 | Clinical observation (Mean Score) Rough coat [2, 20]: 0.4 | Clinical observation (Mean Score) hyperpnea [2, 20]: 0.0 | Clinical observation (Mean Score) Hunched Posture [2, 21]: 0.0 | Clinical observation (Mean Score) Lethergy [2, 21]: 0.0 | Clinical observation (Mean Score) Rough coat [2, 21]: 0.0 | Clinical observation (Mean Score) hyperpnea [2, 21]: 0.0 | Clinical observation (Mean Score) Hunched Posture [2, 22]: 0.0 | Clinical observation (Mean Score) Lethergy [2, 22]: 0.0 | Clinical observation (Mean Score) Rough coat [2, 22]: 0.0 | Clinical observation (Mean Score) hyperpnea [2, 22]: 0.0 | Clinical observation (Mean Score) Hunched Posture [2, 23]: 0.0 | Clinical observation (Mean Score) Lethergy [2, 23]: 0.0 | Clinical observation (Mean Score) Rough coat [2, 23]: 0.0 | Clinical observation (Mean Score) hyperpnea [2, 23]: 0.0 | Clinical observation (Mean Score) Hunched Posture [2, 24]: 0.0 | Clinical observation (Mean Score) Lethergy [2, 24]: 0.0 | Clinical observation (Mean Score) hyperpnea [2, 24]: 0.0 | Bacteria in treated animals ([2]; day 7, compound 1 at 50 mg/kg): BLOQ | antibacterial effect in liver and blood compared to vehicle controls ([2]; day 7, p<0.05): significant dose dependent antibacterial effect | Kidney -Raw data on Vancomycin (32 μg/ml) plates ([2]; 5 mg/kg): 2.73 Log10 CFU/g and 3.23 Log10 CFU/g and 2.66 Log10 CFU/g and 2.94 Log10 CFU/g and 3.34 Log10 CFU/g and 2.68 Log10 CFU/g and 2.59 Log10 CFU/g and 2.54 Log10 CFU/g and 2.75 Log10 CFU/g and BLOQ | Liver-Raw data on Vancomycin (32 μg/ml) plates ([2]; 5 mg/kg): 2.67 Log10 CFU/g and 2.41 Log10 CFU/g (2×) and 3.42 Log10 CFU/g and 2.33 Log10 CFU/g and 2.39 Log10 CFU/g (2×) and 2.53 Log10 CFU/g and 2.61 Log10 CFU/g and 2.57 Log10 CFU/g | Spleen -Raw data on Vancomycin (32 μg/ml) plates ([2]; 5 mg/kg): 3.04 Log10 CFU/g and 3.00 Log10 CFU/g and 3.51 Log10 CFU/g and 2.62 Log10 CFU/g and BLOQ (4×) and 2.91 Log10 CFU/g and 3.17 Log10 CFU/g | Kidney -Raw data on Vancomycin (32 μg/ml) plates ([2]; 50 mg/kg): BLOQ | Liver-Raw data on Vancomycin (32 μg/ml) plates ([2]; 50 mg/kg): BLOQ | Spleen -Raw data on Vancomycin (32 μg/ml) plates ([2]; 50 mg/kg): BLOQ | Blood -Raw data on Vancomycin (32 μg/ml) plates - on day 7 PI ([2]; 5 mg/kg): 1.90 Log10 CFU/g | Blood -Raw data on Vancomycin (32 μg/ml) plates - on day 7 PI ([2]; 5 mg/kg, 5 mg/kg): BLOQ | Blood -Raw data on Vancomycin (32 μg/ml) plates - on day 7 PI ([2]; 50 mg/kg): BLOQ | clinical condition of animals ([2]; treated groups): apparently normal | IC50 [3]: ≤ 1000 nM | inhibition at 1 µM ([3]; @ 1 μM, read-out: Inhib. HDAC3): 61% | IC50 [4]: > 200 µM | Inhib. HDAC9 ([4]; @ 200 μM): No Inhib. @ 200 μM
